{
  "source": "patent US10512667B2",
  "about": "“Compositions and methods for treating conditions related to adrenocortical activity and/or excessive steroid production” (The Regents of the University of Michigan, priority 2017, dated 2019)",
  "key": {"[1]": {"system": "adrenal cortex", "conditions": "in vivo; cited from earlier work"}, "[2]": {"system": "cholesterol-rich tissues", "conditions": "cynomologous monkeys; cited from earlier work"}, "[3]": {"system": "H295R cells", "assay": "Cell morphology by phase contrast microscopy", "assay_type": "cell-based", "conditions": "30 h, phase contrast, hydrochloride", "experimental": "FIG. 4E: […] The cells were cultured with DMSO vehicle (upper images) or with 40 μM ATR-101 (lower images) alone (left images), or in combination with 1.5 mM MβCD (middle images), or in combination with 40 μM cholesterol (right images). Cell morphology was visualized by phase contrast microscopy using a 10× objective. The images are representative of 5 fields under each set of culture conditions. The scale bars denote 100 μm."}, "[4]": {"system": "BD140C cells", "assay": "Visualization of cholesterol levels by filipin III binding", "assay_type": "cell-based", "conditions": "4 h", "in_short": "(§1)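 Cells adhered 48 h, treated with compounds, fixed in 4% paraformaldehyde 20 min, then stained with 100 μg/ml filipin III for 2 h at 37 C in the dark and imaged. Esterification visualized after 2 h culture with 1 μM NBD-cholesterol following compound incubation.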"}, "[5]": {"system": "H295R cells", "assay": "Visualization of cholesterol levels by filipin III binding", "assay_type": "cell-based", "conditions": "H295R cells; for cholesterol level / accumulation (filipin III binding), compound alone: serum-containing medium", "in_short": "as §1"}, "[6]": {"system": "BD140C cells", "assay": "Caspase 3/7 activity (Apo-ONE)", "assay_type": "cell-based", "experimental": "(§2) The samples were incubated for 18 h at room temperature in the dark. The fluorescence was measured using a SpectraMax M5 microplate reader with a 0.5 s acquisition time."}, "[7]": {"system": "H295R cells", "assay": "Caspase 3/7 activity (Apo-ONE)", "assay_type": "cell-based", "conditions": "H295R cells", "experimental": "as §2"}, "[8]": {"system": "BD140C cells", "assay": "Visualization of NBD-cholesterol esterification", "assay_type": "cell-based", "conditions": "compound 2 h then 2 h with NBD-cholesterol", "experimental": "(§3) The cells were seeded in 96-well ibiTreat μ-Plates and allowed to adhere for 48 h prior to the start of each experiment. Cholesterol was detected in fixed cells by incubating with 100 μg/ml filipin III at 37 C for 2 h. The bound filipin III was imaged by fluorescence microscopy using 377/11 nm excitation and 447/60 nm emission wavelengths. Images were captured using either a 4× or a 60× objective. Cholesterol esterification was visualized by culturing the cells with 1 μM NBD-cholesterol for 2 h following incubation with the indicated compounds. NBD-cholesterol esters were imaged by fluorescence microscopy using 485/20 nm excitation wavelengths. Images were captured using either a 20× or a 60× objective.\n(§4) The cells were seeded in 96-well ibiTreat μ-Plates (Ibidi) in 100 μl at a density of 50,000 cells per well. […] 5 μl of NBD-cholesterol was added to each well to produce a final concentration of 1 μM. When NBD-cholesterol is esterified and localized to cytoplasmic lipid droplets, it produces bright fluorescent foci in the cell. The inhibition of ACAT activity prevents fluorescent focus formation by NBD-cholesterol (see, e.g., Lada, et al., 2004 J Lipid Res, 45, 378-86). After 1.5 h, 5 μl of Hoechst 33342 was added to each well to produce a final concentration of 3 μg/ml. After 30 min, the medium was replaced with fresh medium. NBD-cholesterol esterification was visualized by fluorescence microscopy using either 485/20 nm (NBD) or 387/11 nm (Hoechst) excitation wavelengths and images were captured using either a 60× oil objective or a 20× objective."}, "[9]": {"system": "H295R cells", "assay": "Visualization of NBD-cholesterol esterification", "assay_type": "cell-based", "conditions": "compound 2 h then 2 h with NBD-cholesterol, hydrochloride", "experimental": "as §3, §4"}, "[10]": {"system": "BD140C cells", "assay": "Cellular ATP level (CellTiter-Glo)", "assay_type": "cell-based", "method": "The ATP levels of cells were measured by lysis in CellTiter-Glo reagent (Promega), and measurement of the luminescence.\nAfter 48 h, 20-80 μl of medium was removed from each well and replaced with 20 μl of each compound diluted to 6× of the final concentration in the culture medium to produce a final volume of 120 μl. The cells were incubated at 37 C in 5% CO2 atmosphere for a time ranging from 15 min to 24 h. The medium was removed and immediately replaced with 50 μl of CellTiter-Glo luminescence cell viability assay reagent (Promega). The cells were lysed by agitation at room temperature for 20 min in the dark. The luminescence was measured using a SpectraMax M5 microplate reader (Molecular Devices) with a 0.5 s acquisition time. The luminescence (RLU) values for control cells ranged from 5000 to 20000 RLU in all experiments, and were scaled by a factor of 0.001 to plot all graphs."}, "[11]": {"system": "ACC cell xenografts", "conditions": "nude mice; cited from earlier work"}, "[12]": {"system": "H295R cells", "assay": "Cholesterol crystallization and extracellular cholesterol associated with cells", "assay_type": "cell-based", "experimental": "To quantify cholesterol crystallization, experiments were conducted that measured the total extracellular cholesterol that was associated with the cells. After culturing cells with the indicated compounds, the culture medium was removed. Medium lacking cholesterol was added to the cells, and the extracellular cholesterol that was released into the wash medium was collected after 30 seconds. To establish if the cholesterol that was released from the cells was exported by ABCA1, the wash step was performed in parallel using media with and without 50 μM glibenclamide, which inhibits ABCA1 activity. The total amount of cell-associated cholesterol that was released into the wash medium was measured using a fluorometric enzyme-linked assay (Cayman Chemical). Cholesterol esters were hydrolyzed using cholesterol esterase. Cholesterol was oxidized by cholesterol oxidase, producing hydrogen peroxide. The hydrogen peroxide was reacted with 10-acetyl-3,7-dihydroxyphenoxazine (ADHP) in the presence of horseradish peroxidase to produce resorufin. Resorufin fluorescence was measured using 555 nm exitation and 590 nm emission wavelengths in a SpectraMax M5 microplate reader (Molecular Devices).\nThe medium was removed and replaced with 50 μl serum-free medium supplemented with 5 μg/mL apo-AI (without or with 50 μM glyburide to detect ABCA1 transporter-dependent efflux) for either 30 sec or 1 h at 37 C in 5% CO2 atmosphere. After the indicated time, the supernatant, was transferred to a new 96-well plate and a fluorometric-base cholesterol detection assay cocktail was added."}, "[13]": {"biological_target": "T1, MDR1 (Homo sapiens, UniProt P08183)", "T1 construct": "measured the accumulation of doxorubicin in H295R cells; endogenous in cells; host or cells: H295R adrenocortical carcinoma cells", "assay": "Doxorubicin accumulation / clearance in H295R cells", "assay_type": "cell-based", "conditions": "25 μM doxorubicin, 2 h", "experimental": "The medium was removed and immediately replaced with 100 μl of fresh media and intracellular doxorubicin fluorescence was visualized by fluorescence microscopy using a 20× objective."}},
  "note": "Entries after “also recorded” stand apart in the source; their conditions may differ.",
  "data": [
    {"smiles": "CC(C)c1cccc(C(C)C)c1NC(=O)NCC1(c2ccc(N(C)C)cc2)CCCC1.Cl", "note": "[ATR-101, N-(2,6-bis(1-methylethyl)phenyl)-N′-((1-(4-(dimethylamino)phenyl)cyclopentyl)methyl)urea hydrochloride]", "values": [
      {"measurement": "adrenalytic activity", "setting": "[1]", "result": "has adrenalytic activity"},
      {"measurement": "tissue distribution of toxicity", "setting": "[2]", "result": "limited to cholesterol-rich tissues, including the adrenal cortex, the corpus luteum, and sebaceous glands"},
      {"measurement": "cell morphology, compound alone", "setting": "[3]", "result": "small, rounded and weakly attached to the plate"},
      {"measurement": "cholesterol level / accumulation (filipin III binding), compound alone", "setting": "[4]", "result": "caused cholesterol accumulation in or near the plasma membrane"},
      {"measurement": "cholesterol level / accumulation (filipin III binding), compound alone", "setting": "[5]; 24 h", "result": "increase in intracellular cholesterol"},
      {"measurement": "cholesterol level / accumulation (filipin III binding), compound alone", "setting": "[5]; up to 4 h, hydrochloride", "result": "caused cholesterol accumulation in or near the plasma membrane; also recorded: increase in cholesterol accumulation in the plasma membrane; also recorded: higher levels of filipin III binding to the plasma membrane"},
      {"measurement": "cholesterol level (filipin III binding), compound alone", "setting": "[5]; serum-free medium containing apoA-I, 4 h, hydrochloride", "result": "increased the level of cholesterol in intracellular membranes; also recorded: increased the cholesterol levels; also recorded: higher cholesterol levels"},
      {"measurement": "caspase 3/7 activity, compound alone", "setting": "[6]; 4 h", "result": "increased the caspase 3/7 activity"},
      {"measurement": "caspase 3/7 activity, compound alone", "setting": "[6]; 24 h", "result": "increased the caspase 3/7 activities"},
      {"measurement": "time after ATR-101 addition at which caspase activation was detected", "setting": "[7]; 100 μM ATR-101", "result": 15, "unit": "min"},
      {"measurement": "caspase 3/7 activity, compound alone", "setting": "[7]; serum-containing medium, 4 h", "result": "increased the caspase 3/7 activity"},
      {"measurement": "caspase 3/7 activity, compound alone", "setting": "[7]; serum-containing medium, 24 h", "result": "increased the caspase 3/7 activities"},
      {"measurement": "caspase 3/7 activity, compound alone", "setting": "[7]; serum-free medium, 4 h", "result": "caused ATP depletion and caspases activation with the same potency"},
      {"measurement": "NBD-cholesterol esterification and accumulation in lipid droplets", "setting": "[8]", "result": "inhibited NBD-cholesterol esterification"},
      {"measurement": "NBD-cholesterol esterification and accumulation in lipid droplets", "setting": "[9]", "result": "inhibits NBD-cholesterol esterification; also recorded: eliminated both the intense foci and the diffuse fluorescence"},
      {"measurement": "ATP level, compound alone", "setting": "[10]; 4 h", "result": "reduced the ATP level"},
      {"measurement": "ATP level, compound alone", "setting": "[10]; 24 h", "result": "reduced the ATP levels"},
      {"measurement": "establishment and growth of ACC cell xenografts", "setting": "[11]", "result": "inhibits the establishment and impedes the growth"},
      {"measurement": "cholesterol crystallization at the plasma membrane, compound alone", "setting": "[12]; 40 μM ATR-101, 24 h, hydrochloride", "result": "associated with crystals that emanated from the cell membrane; also recorded: cholesterol crystallization at the plasma membrane"},
      {"measurement": "total extracellular cholesterol associated with cells", "setting": "[12]; 4 h, 100 μM ATR-101 or 40 μM cholesterol", "result": "increased the total extracellular cholesterol"},
      {"measurement": "doxorubicin accumulation", "setting": "[13]; 20 μM compound", "result": "increased doxorubicin accumulation"},
      {"measurement": "doxorubicin accumulation in the presence of MβCD", "setting": "[13]; 100 μM ATR-101, 4 mM MβCD", "result": "caused doxorubicin accumulation in the presence of MβCD"}
    ]}
  ]
}
